The values that follow come from patent publication EP3383875B1, “3-PYRIMIDINYL PYRROLO [2,3-B] PYRIDINE AS ANTICANCER AGENTS AND THE PROCESS FOR THE PREPARATION THEREOF” (Council Of Scientific & Industrial Research, priority 2015, dated 2017).

The target in assay [1] is CDK-2/cyclin A (Homo sapiens, UniProt P24941). Kind of assay: CDK inhibition assay, CDK-2/cyclin A against Histone HI, 33P-ATP. Type of assay: biochemical. As for the experimental part:
Compounds were evaluated for their ability to inhibit CDK2 and CDK9 as given below.
CDK-2/cyclin A (5-20 mU diluted in 50 mM Hepes pH 7.5, 1 mM DTT, 0.02% Brij35, 100 mM NaCl) was assayed against Histone HI in a final volume of 25.5 µl containing 50 mM Hepes pH7.5, 1 mM DTT, 0.02% Brij35, 100 mM NaCl, Histone HI (1 mg/ml), 10 mM magnesium acetate and 0.02 mM [33P-g-ATP](500-1000 cpm/pmole) and incubated for 30 min at room temperature. Assays were stopped by addition of 5 µl of 0.5 M (3%) orthophosphoric acid and then harvested onto P81 Unifilter plates with a wash buffer of 50 mM orthophosphoric acid.

In assay [2] the target is CDK-9/Cyclin T1 (Homo sapiens, UniProt P50750). Kind of assay: CDK inhibition assay, CDK-9/Cyclin T1 against substrate peptide, 33P-ATP. Type of assay: biochemical. On the procedure:
(50-1000 cpm/pmole) and incubated for 30 min at room temperature. Assays were stopped by addition of 5 µl of 0.5 M (3%) orthophosphoric acid and then harvested onto P81 Unifilter plates with a wash buffer of 50 mM orthophosphoric acid.

The subject of assay [3] is MCF-7. Kind of assay: MTT assay on cancer cell line MCF-7. Type of assay: cell-based, Human. To be noted: Homo sapiens. As for the experimental part: (§1) Cell culture, growth conditions and treatments. […] Different molecules were dissolved in DMSO and were delivered to cell cultures in complete medium.
For orientation: Tetrazolium assays rely on reduction of a dye to a coloured formazan, in cell work by metabolically active cells.

The test system of assay [4] is PC-3. Description: MTT assay on cancer cell line PC-3. Type of assay: cell-based, human. To be noted: Homo sapiens, Table 9 (for reference), read-out: In vitro cell inhibition, % of inhibition, PC-3. As for the experimental part:
as §1

The test system of assay [5] is MDA-MB435. Description: MTT assay on cancer cell line MDA-MB435. It counts as cell-based, Human. To be noted: Homo sapiens, MDA-MB-435; MDA-MB435; at 10µM; Table 9 (for reference); read-out: In vitro cell inhibition, % of inhibition, MDA-MB435. As for the experimental part: as §1
In assay [6] the test system is HCT-116. Kind of assay: MTT assay on cancer cell line HCT-116. It counts as cell-based, human. The note with it: Homo sapiens, at 10µM, Table 9 (for reference), read-out: In vitro cell inhibition, % of inhibition, HCT-116. As for the experimental part:
as §1

Assay [7] concerns SHSY-5Y. Kind of assay: MTT assay on cancer cell line SHSY-5Y. It counts as cell-based, human. The note with it: Homo sapiens, SH-SY5Y. As for the experimental part:
as §1

Setting [8] is: at 500 nM, Table-7, read-out: In vitro CDK2 % of inhibition.
Where [9] appears, read: at 500 nM, read-out: inhibition against CDK2.
The mark [10] stands for this setting: at 500 nM, Table-7, read-out: In vitro CDK9 % of inhibition.
[11] abbreviates: at 500 nM, read-out: inhibition against CDK9.
Where [12] appears, read: MCF7, MCF-7, Table 9 (for reference), read-out: In vitro cell inhibition, % of inhibition, MCF-7.
Where [13] appears, read: MCF7, read-out: inhibition against MCF-7 cell lines.
[14] abbreviates: SHSY-5Y, Table 9 (for reference), read-out: In vitro cell inhibition, % of inhibition, SHSY-5Y.
The mark [15] stands for this setting: read-out: inhibition against SHSY-5Y cell lines.

One may read the inhibition as the relative decrease from the control value, in per cent.

Read-outs that look alike come from different tables or passages of the source.

Chain of CDK-9/Cyclin T1 (P50750 whole entry): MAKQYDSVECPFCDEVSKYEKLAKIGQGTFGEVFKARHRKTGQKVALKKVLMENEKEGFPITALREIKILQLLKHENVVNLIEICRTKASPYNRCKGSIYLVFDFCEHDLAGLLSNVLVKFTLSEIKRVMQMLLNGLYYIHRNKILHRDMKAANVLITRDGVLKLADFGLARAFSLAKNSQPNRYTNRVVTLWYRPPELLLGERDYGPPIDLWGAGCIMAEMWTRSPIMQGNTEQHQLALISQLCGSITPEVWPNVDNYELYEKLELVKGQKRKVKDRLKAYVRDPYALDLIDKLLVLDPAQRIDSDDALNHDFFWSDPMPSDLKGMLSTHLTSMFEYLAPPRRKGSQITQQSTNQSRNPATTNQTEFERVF
Chain of CDK-9/Cyclin T1 (O60563 whole entry partner): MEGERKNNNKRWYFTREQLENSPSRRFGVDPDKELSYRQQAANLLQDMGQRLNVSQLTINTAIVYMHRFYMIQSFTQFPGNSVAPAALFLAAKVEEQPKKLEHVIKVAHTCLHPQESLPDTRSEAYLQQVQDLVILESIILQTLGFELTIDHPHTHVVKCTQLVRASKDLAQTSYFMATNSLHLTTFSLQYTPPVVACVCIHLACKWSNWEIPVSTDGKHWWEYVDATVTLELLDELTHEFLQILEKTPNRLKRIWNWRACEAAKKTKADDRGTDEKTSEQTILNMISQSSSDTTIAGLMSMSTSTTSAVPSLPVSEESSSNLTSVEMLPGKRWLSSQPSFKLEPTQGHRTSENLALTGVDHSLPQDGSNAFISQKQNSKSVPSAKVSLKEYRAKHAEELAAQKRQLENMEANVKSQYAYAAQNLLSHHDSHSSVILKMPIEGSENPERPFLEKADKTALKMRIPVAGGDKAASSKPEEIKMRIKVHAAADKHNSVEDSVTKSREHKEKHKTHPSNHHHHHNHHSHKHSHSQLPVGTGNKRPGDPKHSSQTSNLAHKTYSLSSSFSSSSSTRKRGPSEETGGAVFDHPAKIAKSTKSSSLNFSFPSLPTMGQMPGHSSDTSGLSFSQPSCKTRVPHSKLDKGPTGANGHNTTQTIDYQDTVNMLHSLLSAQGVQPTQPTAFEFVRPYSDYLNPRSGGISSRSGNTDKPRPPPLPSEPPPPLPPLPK

For `FC(F)(F)c1cccc(-c2cnc3[nH]cc(-c4ccnc(NCCc5ccccc5)n4)c3c2)c1` [1B4, N-phenethyl-4-(5-(3-(trifluoromethyl)phenyl)-1H-pyrrolo[2,3-b]pyridin-3-yl)pyrimidin-2-amine], the inhibition at 0.5 µM in assay [1] (setting [8]), in assay [1] (setting [9]), in assay [2] (setting [10]) and in assay [2] (setting [11]) was above 70% in each case.

For `Cc1ccc(-c2cnc3[nH]cc(-c4ccnc(NCCc5ccccc5)n4)c3c2)cc1` [1B6, N-phenethyl-4-(5-(p-tolyl)-1H-pyrrolo[2,3-b]pyridin-3-yl)pyrimidin-2-amine], the inhibition at 0.5 µM in assay [1] (setting [8]), in assay [1] (setting [9]), in assay [2] (setting [10]) and in assay [2] (setting [11]) was above 70% each time.

`Cc1cccc(-c2cnc3[nH]cc(-c4ccnc(NCCc5ccccc5)n4)c3c2)c1` [1B7, N-phenethyl-4-(5-(m-tolyl)-1H-pyrrolo[2,3-b]pyridin-3-yl)pyrimidin-2-amine]: the inhibition at 0.5 µM in assay [1] (setting [8]), in assay [1] (setting [9]), in assay [2] (setting [10]) and in assay [2] (setting [11]) was above 70% each time.

Turning to `CSc1ccc(-c2cnc3[nH]cc(-c4ccnc(NCCc5ccccc5)n4)c3c2)cc1` [1B8, 4-(5-(4-(methylthio)phenyl)-1H-pyrrolo[2,3-b]pyridin-3-yl)-N-phenethylpyrimidin-2-amine], the inhibition at 0.5 µM in assay [1] (setting [8]), in assay [1] (setting [9]), in assay [2] (setting [10]) and in assay [2] (setting [11]) was above 50% throughout.

Consider `CSc1ccccc1-c1cnc2[nH]cc(-c3ccnc(NCCc4ccccc4)n3)c2c1` [1B9, 4-(5-(2-(methylthio)phenyl)-1H-pyrrolo[2,3-b]pyridin-3-yl)-N-phenethylpyrimidin-2-amine], for which the inhibition at 0.5 µM in assay [1] (setting [8]), in assay [1] (setting [9]), in assay [2] (setting [10]) and in assay [2] (setting [11]) was above 50% throughout.

In the case of `CCc1ccccc1-c1cnc2[nH]cc(-c3ccnc(NCCc4ccccc4)n3)c2c1` [1B10, 4-(5-(2-ethylphenyl)-1H-pyrrolo[2,3-b]pyridin-3-yl)-N-phenethylpyrimidin-2-amine], the inhibition at 0.5 µM in assay [1] (setting [8]), in assay [1] (setting [9]), in assay [2] (setting [10]) and in assay [2] (setting [11]) was above 50% each time.

Consider `CC(=O)c1ccc(-c2cnc3[nH]cc(-c4ccnc(NCCc5ccccc5)n4)c3c2)cc1` [1B13, 1-(4-(3-(2-(phenethylamino)pyrimidin-4-yl)-1H-pyrrolo[2,3-b]pyridin-5-yl)phenyl)ethan-1-one], for which the inhibition at 0.5 µM in assay [1] (setting [8]), in assay [1] (setting [9]), in assay [2] (setting [10]) and in assay [2] (setting [11]) was above 50% throughout.

Turning to `c1ccc(CCNc2nccc(-c3c[nH]c4ncc(-c5cccc6ccccc56)cc34)n2)cc1` [1B14, 4-(5-(naphthalen-1-yl)-1H-pyrrolo[2,3-b]pyridin-3-yl)-N-phenethylpyrimidin-2-amine], the inhibition at 0.5 µM in assay [1] (setting [8]), in assay [1] (setting [9]), in assay [2] (setting [10]) and in assay [2] (setting [11]) was above 50% each time.

For `c1ccc(CCNc2nccc(-c3c[nH]c4ncc(-c5ccoc5)cc34)n2)cc1` [1B16, 4-(5-(furan-3-yl)-1H-pyrrolo[2,3-b]pyridin-3-yl)-N-phenethylpyrimidin-2-amine], the inhibition at 0.5 µM in assay [1] (setting [8]), in assay [1] (read-out: inhibition against CDK2), in assay [2] (read-out: In vitro CDK9 % of inhibition) and in assay [2] (read-out: inhibition against CDK9) was above 70% throughout.

In the case of `COc1ccc2[nH]c(-c3cnc4[nH]cc(-c5ccnc(NCCc6ccccc6)n5)c4c3)cc2c1` [1B17, 4-(5-(5-methoxy-1H-indol-2-yl)-1H-pyrrolo[2,3-b]pyridin-3-yl)-N-phenethylpyrimidin-2-amine], the inhibition at 0.5 µM in assay [1] (setting [8]), in assay [1] (setting [9]), in assay [2] (setting [10]) and in assay [2] (setting [11]) was above 50% in each case.

For the molecule `c1ccc(CCNc2nccc(-c3c[nH]c4ncc(-c5cc6ccccc6s5)cc34)n2)cc1` [1B18, 4-(5-(benzo[b]thiophen-2-yl)-1H-pyrrolo[2,3-b]pyridin-3-yl)-N-phenethylpyrimidin-2-amine], the inhibition at 0.5 µM in assay [1] (setting [8]), in assay [1] (setting [9]), in assay [2] (setting [10]) and in assay [2] (setting [11]) was above 50% in each case.

In the case of `c1ccc(CCNc2nccc(-c3c[nH]c4ncc(-c5cc6ccccc6[nH]5)cc34)n2)cc1` [1B19, 4-(5-(1H-indol-2-yl)-1H-pyrrolo[2,3-b]pyridin-3-yl)-N-phenethylpyrimidin-2-amine], the inhibition at 0.5 µM in assay [1] (setting [8]), in assay [1] (setting [9]), in assay [2] (setting [10]) and in assay [2] (setting [11]) was above 50% in each case.

Turning to `c1ccc(CCNc2nccc(-c3c[nH]c4ncc(-c5nccc6ccccc56)cc34)n2)cc1` [1B20, 4-(5-(isoquinolin-1-yl)-1H-pyrrolo[2,3-b]pyridin-3-yl)-N-phenethylpyrimidin-2-amine], the inhibition at 0.5 µM in assay [1] (setting [8]), in assay [1] (setting [9]), in assay [2] (setting [10]) and in assay [2] (setting [11]) was above 50% in each case.

With `Nc1nccc(-c2c[nH]c3ncc(-c4ccc(C(F)(F)F)cc4)cc23)n1` [1C1, 4-(5-(4-(trifluoromethyl)phenyl)-1H-pyrrolo[2,3-b]pyridin-3-yl)pyrimidin-2-amine], the inhibition at 10 µM in assay [3] (setting [12]) was above 50%; in assay [3] (setting [13]) it was above 50%; in assay [4] it was above 50%; in assay [5], below 50%; in assay [6], above 50%; in assay [7] (setting [14]), above 50%.

For `Nc1nccc(-c2c[nH]c3ncc(-c4ccc(OC(F)(F)F)cc4)cc23)n1` [1C3, 4-(5-(4-(trifluoromethoxy)phenyl)-1H-pyrrolo[2,3-b]pyridin-3-yl)pyrimidin-2-amine], the inhibition at 10 µM in assay [3] (setting [12]) is above 70%; in assay [3] (setting [13]) it was above 70%; in assay [4], above 50%; in assay [5], above 70%; in assay [6] it was above 70%; in assay [7] (setting [14]), above 70%. Moreover, the inhibition at 10 µM in assay [7] (setting [15]) was above 70%.

Take `Nc1nccc(-c2c[nH]c3ncc(-c4cccc(F)c4)cc23)n1` [1C5, 4-(5-(3-fluorophenyl)-1H-pyrrolo[2,3-b]pyridin-3-yl)pyrimidin-2-amine]: the inhibition at 10 µM in assay [3] (setting [12]) is above 70%; in assay [3] (setting [13]), above 70%; in assay [4] it was below 50%; in assay [5] it was above 70%; in assay [6] it was above 70%; in assay [7] (setting [14]), above 70%. Besides, the inhibition at 10 µM in assay [7] (setting [15]) is above 70%.

Take `Cc1ccc(-c2cnc3[nH]cc(-c4ccnc(N)n4)c3c2)cc1` [1C6, 4-(5-(p-tolyl)-1H-pyrrolo[2,3-b]pyridin-3-yl)pyrimidin-2-amine]: the inhibition at 10 µM is above 70% in assay [3] (setting [12]); above 70% in assay [3] (setting [13]); above 50% in assay [4]; above 70% in assay [5]; above 70% in assay [6]; above 70% in assay [7] (setting [14]). Besides, in assay [7] (setting [15]), the inhibition at 10 µM is above 70%.

On to `CSc1ccc(-c2cnc3[nH]cc(-c4ccnc(N)n4)c3c2)cc1` [1C8, 4-(5-(4-(methylthio)phenyl)-1H-pyrrolo[2,3-b]pyridin-3-yl)pyrimidin-2-amine], for which the inhibition at 10 µM was above 50% in assay [3] (setting [12]); above 50% in assay [3] (setting [13]); below 50% in assay [4]; above 70% in assay [5]; above 70% in assay [6]; above 50% in assay [7] (setting [14]).

On to `CN1CC[C@H](c2c(O)cc(O)c3c(=O)cc(-c4ccccc4Cl)oc23)[C@H](O)C1` [Flavopyr idol, flavopiridol, reference compound], for which the inhibition at 0.5 µM in assay [1] (at 500 nM, Table-6, read-out: In vitro CDK2 % of inhibition) is above 70%; in assay [2] (read-out: In vitro CDK9 % of inhibition, at 500 nM, Table-6), above 70%.
